Measurements published in paper PMC5597121, “The human bitter taste receptor T2R38 is broadly tuned for bacterial compounds” (PLoS ONE, 2017).
Changes are numbered by the printed parent chain. Several values for one entry are separate records, joined by “and”; a condition that tells them apart may be missing. Identical values can stand only once. Entries after “also recorded” stand apart in the source; their conditions may differ. Like-named read-outs stand apart in the source and are kept apart here.

Legend:
T2R38 AVI = molecular target: T1, T2R38 AVI (Homo sapiens, UniProt P59533, A262V); assay: Single cell calcium imaging, control: cells transfected with nonfunctional allele (AVI) of T2R38; format: cell-based; conditions: for response of T2R38 AVI transfected cells (S7_fig raw data): individual values of experiments 1-5
T1 construct: leader: first 45 amino acids of rat somatostatin receptor subtype 3 (SSTR3) (N); expressed in transfected cells; host or cells: Peakrapid cells (HEK293 derivative, ATCC CRL-2828) stably expressing Galpha16gustducin44, co-transfected with human RTP4
T1 sequence (P59533 1-333 A262V): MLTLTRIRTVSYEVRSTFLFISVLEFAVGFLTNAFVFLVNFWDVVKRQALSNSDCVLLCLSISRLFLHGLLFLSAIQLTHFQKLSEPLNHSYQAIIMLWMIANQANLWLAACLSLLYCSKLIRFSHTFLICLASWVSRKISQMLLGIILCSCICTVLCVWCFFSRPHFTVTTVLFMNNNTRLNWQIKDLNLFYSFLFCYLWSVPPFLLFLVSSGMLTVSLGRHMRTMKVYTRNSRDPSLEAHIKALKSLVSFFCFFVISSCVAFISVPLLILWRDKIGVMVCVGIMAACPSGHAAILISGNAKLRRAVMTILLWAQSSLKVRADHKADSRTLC
Procedure: (§1) The coding sequences of either the functional (PAV, GenBank accession number AY258597.1) and non-functional (AVI, GenBank accession number AF494231.1) were amplified from human genomic DNA by polymerase chain reaction.
(§2) The Peakrapid cell line expressing stably a chimeric Gα16gustducin44 G protein [21] was used. 40 000 cells were seeded in each well of a black/clear poly-D-lysine cellware pre-coated 96-well plate (Biocoat®, Becton-Dickinson, Erembodegem, Belgium) and transiently transfected with 50 ng of plasmid DNA containing the receptor sequence or not (empty vector) and with 50 ng of chaperone protein RTP4 per well. Forty hours after transfection, cells were incubated with the calcium-sensitive dye Fluo4 (Life Technologies, Oregon, USA) solubilized at 10 μg/ml in a buffer containing EMEM (150 mM NaCl, 5 mM KCl, 2 mM CaCl2, 1.2 mM MgCl2, 10 mM glucose), 10 mM HEPES, 0.01% (v/v) Pluronic F127, 0.1% (w/v) bovine serum albumin. After 1 h incubation at 37°C, cells were rinsed twice with the same buffer without Fluo4 and left in 50 μl buffer (prior ligand injection). Measurement were performed on a platform based on a motorized Axiobserver Z1 fluorescence microscope piloted by a Axiovision software (Zeiss, Jena, Germany) as described previously. For each selected well, images were taken 1 per second, during 30 seconds. 50 μl of the buffer containing the ligand twice concentrated was injected on the 2nd second of the time lapse record.
(§3) After time lapse record, the number of responding cells in each injected well was determined using ImageJ 1.34 (Rasband, W.S., ImageJ, National Institutes of Health, Bethesda, Maryland, USA, http://rsb.info.nih.gov/ij/1997-2004), and expressed as the percentage of the surface of a microscope field covered by activated cells with respect to the total surface of the field covered by confluent cells. Automated determination of the surface occupied by responding cells is easier to perform than a cell counting. The resulting percentage of positive surface provided a convenient estimation of the percentage of responding cells, as observed by comparing the percentage of positive surface and percentage of responsive cells determined by direct counting, in the same experiment. In agreement with the literature, the percentage of responding cells was proportional to the agonist concentration. During experiment in each plate, at least 2 wells were tested with phenylthiocarbamide (PTC) at 0.1 mM, which is one of the best characterized agonist of T2R38 in the literature. The activation of T2R38 by PTC allows normalization of the result of other tested molecules. The results were thus expressed as the percentage of PTC activation. In scaling calcium imaging assays using this latter receptor, concentration-responses curves were performed and data were fitted to a four parameter logistic equation: y=min+ (max− min)/1+10 ^(logEC50−x)nH . Min and max are the minimum and the maximum values of the percentage of cell-activated surface respectively, y is the percentage of cell-activated surface at the x concentration and nH is the Hill coefficient.

T2R38 = molecular target: T2, T2R38 (Homo sapiens, UniProt P59533, A49P/I296V); assay: Single cell calcium imaging, Peakrapid cells (Gα16gustducin44) transiently transfected with T2R38; format: cell-based; conditions: for response of T2R38 PAV transfected cells (S7_fig raw data): individual values of experiments 1-5
T2 construct: leader: first 45 amino acids of rat somatostatin receptor subtype 3 (SSTR3) (N); expressed in transfected cells; host or cells: Peakrapid cells (HEK293 derivative, ATCC CRL-2828) stably expressing Galpha16gustducin44, co-transfected with human RTP4
T2 sequence (P59533 1-333 A49P/I296V): T1 sequence (P59533 1-333 A262V) with A49P, V262A, I296V
Description: as §1
These coding sequences were cloned in a pEFIB backbone vector in translational fusion with the coding sequence of a leader sequence corresponding to the 45 first amino acids of the rat somatostatin receptor subtype 3 [20]. The constructs were verified by sequencing. The coding sequence of RTP4 (Genbank accession number AY562238.1) was amplified from human spleen cDNA and cloned a pCI backbone vector.
The Gα16gustducin44 sequence was generated by swapping the last 132 nucleotides of the G α16 with the corresponding terminal sequence of the Gα-gustducin [21] and was cloned in a pIRES-Puro plasmid. This vector was transfected in the Peakrapid cell line (ATCC reference: CRL-2828™; purchased from LGC Standards SARL, Molsheim, FRANCE), HEK293 cell line derivative, cultured in EMEM culture medium (reference BE12-136F; Lonza, Vervier, BELGIUM) supplemented with 10% of foetal bovine serum (Sigma-Aldrich, Bornem, Belgium) and 1 μg/ml of Puromycin to allow the selection of recombinant cell populations. Cell clones expressing the Gα16gustducin44 were selected and the clone presenting the best functional response of T2R38 to phenylthicarbamide was used for the study (see below).
as §2
as §3, with “In scaling calcium imaging assays using this latter receptor, concentration-responses curves were performed and data were fitted to a four parameter logistic equation: y=min+ (max− min)/1+10 ^(logEC50−x)nH . Min and max are the minimum and the maximum values of the percentage of cell-activated surface respectively, y is the percentage of cell-activated surface at the x concentration and nH is the Hill coefficient.” left out

[1] = tested on: mock transfected cells (empty vector); assay: Single cell calcium imaging, control: mock transfected (empty vector) Peakrapid cells; format: cell-based, human
Procedure: as §2, §3

[2] = 2 méthyl propanal 0.000398107, log10[ ] -3.4
[3] = 2 méthyl propanal 0.00251189, log10[ ] -2.6
[4] = 2 méthyl propanal 0.0158489, log10[ ] -1.8
[5] = concentration-response curve, read-out: EC50
[6] = percentage of the response elicited by 0.1 mM PTC

## CC(C)C=O [2-methylpropanal]
T2R38 AVI; listed as 2 méthyl propanal
  response of T2R38 AVI transfected cells (S7_fig raw data): 1% (2×) and 2% and 1.41% and 0.831% and 1.15%
T2R38
  agonist activity on T2R38 (in words): able to specifically trigger this receptor
T2R38; [2]
  percentage of surface covered by activated cells: 0.29% and 0.95% and 0.86% and 0.39% and 1.39% and 0.60% and 1.13% and 1.16%
T2R38; [3]
  percentage of surface covered by activated cells: 1.62% and 0.54% and 2.22% and 1.87% and 1.50% and 1.18% and 5.46% and 4.93%
T2R38; [4]
  percentage of surface covered by activated cells: 36.19% and 28.82% and 26.57% and 24.12% and 23.76% and 32.56% and 40.19% and 33.93%
T2R38; listed as 2 méthyl propanal
  response of T2R38 PAV transfected cells (S7_fig raw data): 27% and 16% and 28% and 14% (2×) and 8.51%
T2R38; [5]
  EC50: 11 mM
T2R38; given in the concentration-response curve
  logEC50: -1.97
T2R38; [6]
  Emax (% of positive control): 163 % of positive control
[1]; [2]
  percentage of surface covered by activated cells: 0.75% and 0.87% and 0.24% and 0.23% and 0.25% and 0.37% and 0.61%
[1]; [3]
  percentage of surface covered by activated cells: 0.28% and 0.65% and 0.25% and 0.23% and 1.49% and 1.18% and 0.31% and 0.37%
[1]; 2 méthyl propanal 0.00398107, log10[ ] -2.4
  percentage of surface covered by activated cells: 0.33% and 0.26% and 0.12% and 0.41% and 0.13% and 0.42% and 0.48% and 0.87%
[1]; 2 méthyl propanal 0.00630957, log10[ ] -2.2
  percentage of surface covered by activated cells: 0.35% and 0.63% and 0.24% and 0.06% and 0.59% and 0.25% and 0.34% and 0.85%
[1]; 2 méthyl propanal 0.01, log10[ ] -2
  percentage of surface covered by activated cells: 0.73% and 0.27% and 0.89% and 1.38% and 0.42% and 1.05% and 1.19% and 0.79%
[1]; [4]
  percentage of surface covered by activated cells: 1.86% and 0.33% and 2.42% and 3.28% and 1.11% and 1.32% and 3.65% and 5.14%

## CCCC(C)=O [2-pentanone]
T2R38 AVI
  response of T2R38 AVI transfected cells (S7_fig raw data): 0.427% and 0.477% and 0.476% and 0.193% and 0.0823% and 0.141% and 0.285% and 0.393%
T2R38
  agonist activity on T2R38 (in words): able to specifically trigger this receptor
  response of T2R38 PAV transfected cells (S7_fig raw data): 9% and 12% and 15% and 13% (2×) and 7.41% and 5.71% and 14%
T2R38; [5]
  EC50: 4 mM
T2R38; given in the concentration-response curve, read-out: logEC50 (converted)
  EC50: 4.17 mM
T2R38; percentage of the response elicited by 0.1 mM PTC, read-out: Emax (% of positive control)
  Emax: 45%
[1]; 2 pentanone 0.0001, log10[ ] -4
  percentage of surface covered by activated cells: 0.19% and 0.34% and 0.32% and 0.16% and 0.35% and 0.41%
[1]; 2 pentanone 0.001, log10[ ] -3
  percentage of surface covered by activated cells: 0.04% and 1.06% and 0.17% and 0.14% and 0.64% and 0.06%
[1]; 2 pentanone 0.003, log10[ ] -2.52288
  percentage of surface covered by activated cells: 0.03% and 0.41% and 0.31% and 0.06% and 0.22% and 0.074%
[1]; 2 pentanone 0.006, log10[ ] -2.22185
  percentage of surface covered by activated cells: 0.27% and 1.25% and 0.19% and 0.29% and 0.62% and 0.33%
[1]; 2 pentanone 0.02, log10[ ] -1.69897
  percentage of surface covered by activated cells: 0.18% and 0.24% and 0.54% and 1.13% and 0.15% and 0.52%

## C[S+](C)[O-] [DMSO, dimethylsulfoxide]
T2R38 AVI
  effect on the non-functional haplotype of T2R38 (AVI): absence of effect
T2R38
  agonist activity on T2R38 (in words): activated T2R38
T2R38; DMSO 0.0208957 M
  percentage of surface covered by activated cells: 0.32% and 1.00% and 0.12% and 3.02% and 1.04% and 0.84%
T2R38; DMSO 0.0505834 M
  percentage of surface covered by activated cells: 0.62% and 1.17% and 1.07% and 2.06% and 2.44%
T2R38; DMSO 0.0660305 M
  percentage of surface covered by activated cells: 0.58% and 2.76% and 4.06% and 1.23% and 6.36% and 2.08%
T2R38; DMSO 0.15%
  percentage of surface covered by activated cells: 0.58% and 0.91% and 0.69% and 1.00%
T2R38; DMSO 0.3%
  percentage of surface covered by activated cells: 0.69% and 0.46%
T2R38; DMSO 1.5%
  percentage of surface covered by activated cells: 4.39% and 7.39% and 7.25% and 2.49% and 4.85% and 7.28%
T2R38; DMSO 1.5% (209 mM) alone
  T2R38-dependent calcium response: induced a T2R38-dependent calcium response of the same intensity; also recorded: activates specifically T2R38
T2R38; [6]
  Emax (% of positive control): 88 % of positive control
[1]; DMSO 0.0208957 M
  percentage of surface covered by activated cells: 0.0457% and 0.0545% and 0.10%
[1]; DMSO 0.0505834 M
  percentage of surface covered by activated cells: 0.62% and 0.46% and 0.98%
[1]; DMSO 0.0660305 M
  percentage of surface covered by activated cells: 1.05% and 0.28% and 0.79%
[1]; DMSO 0.113804 M
  percentage of surface covered by activated cells: 0.19% and 0.57% and 0.37%
[1]; DMSO 0.15%
  percentage of surface covered by activated cells: 0.20% and 0.05%
[1]; DMSO 0.161577 M
  percentage of surface covered by activated cells: 0.48% and 0.22% and 0.50%
[1]; DMSO 0.208656 M
  percentage of surface covered by activated cells: 1.44% and 1.21% and 1.20%
[1]; DMSO 0.283773 M
  percentage of surface covered by activated cells: 0.60% and 5.54% and 2.61%
[1]; DMSO 0.3%
  percentage of surface covered by activated cells: 0.01%
[1]; DMSO 0.388101 M
  percentage of surface covered by activated cells: 0.89% and 2.18% and 2.66%
[1]; DMSO 0.417313 M
  percentage of surface covered by activated cells: 2.52% and 1.37% and 1.55%
[1]; DMSO 1.5%
  percentage of surface covered by activated cells: 1.51% and 0.51% and 0.83% and 0.76% and 0.97% and 0.34%
